The values below come from paper PMC2778250 (Journal of medicinal chemistry, 2009).

The structures appear in SMILES notation. Where only a bound is given, the exact number is not on record here.

Data set [1] relates to T3SS-dependent Y. pseudotuberculosis killing of macrophages.
Data set [2] deals with LcrF (Yersinia pestis, UniProt P28808). The data set can be described thus: biochemical. Type of data set: binding. The settings on record: for IC50: LcrF IC50.
For data set [3], the system named is pET-15b supercoiled plasmid DNA. The data set can be described thus: In vitro DNA binding assay. As to conditions: 100 μg/mL; agarose gel electrophoresis.
The subject of data set [4] is Y. pseudotuberculosis. The format is cell-based.
Data set [5] concerns S. aureus. In words: In vitro antimicrobial susceptibility test. The format is cell-based.
The subject of data set [6] is E. coli. The data set can be described thus: In vitro antimicrobial susceptibility test. The format is cell-based.
Data set [7] has as its system uninfected J774A.1 murine macrophages. The settings on record: 50μg/mL.
Data set [8] has as its target T1, SlyA (Salmonella typhimurium, UniProt P40676).
T1 sequence (P40676 1-144): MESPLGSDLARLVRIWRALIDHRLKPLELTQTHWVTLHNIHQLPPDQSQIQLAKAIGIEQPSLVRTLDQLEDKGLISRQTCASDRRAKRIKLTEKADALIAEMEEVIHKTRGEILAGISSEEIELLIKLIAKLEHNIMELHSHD
In words: biochemical. The format is binding, Salmonella spp.

Chain of LcrF (P28808 whole entry, looked up): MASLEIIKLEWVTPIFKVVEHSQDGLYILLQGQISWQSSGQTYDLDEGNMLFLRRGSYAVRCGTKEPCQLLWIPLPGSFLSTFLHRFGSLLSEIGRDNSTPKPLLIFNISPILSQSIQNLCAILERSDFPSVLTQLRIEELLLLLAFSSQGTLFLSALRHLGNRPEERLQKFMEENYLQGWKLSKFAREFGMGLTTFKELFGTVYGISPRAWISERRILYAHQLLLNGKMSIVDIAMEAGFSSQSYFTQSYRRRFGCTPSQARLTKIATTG

With `Cc1ccc(/C=C/C(=O)Nc2ccc(-c3nc4ccc([N+](=O)[O-])cc4n3O)cc2)cc1` [Compound 20, (E)-N-[4-(1-Hydroxy-6-nitro-1H-benzoimidazol-2-yl)-phenyl]-3-p-tolyl-acrylamide], the “inhibition of Y. pseudotuberculosis cytotoxicity in whole cell assay (in words)” value (“inhibition” for short) in data set [1] was “relatively inactive”.
For `O=C(NCc1ccc(-c2nc3ccc([N+](=O)[O-])cc3n2O)cc1)c1ccc(F)cc1` [Compound 11, 4-Fluoro-N-[4-(1-hydroxy-6-nitro-1H-benzoimidazol-2-yl)-benzyl]-benzamide], the “inhibitory activity in LcrF-DNA binding assay (in words)” value (“inhibitory activity” for short) in data set [2] is on record as “no measurable activity”.
Consider `CN(C)CCN(C)c1cc2nc(-c3ccc(NC(=O)/C=C/c4ccc(F)cc4)cc3)n(O)c2cc1[N+](=O)[O-]` [Compound 40], for which, in data set [3], the “non-specific DNA binding (effect on plasmid migration)” value (from here on “non-specific DNA binding”) is “non-specific binding to DNA”.
Regarding `COc1ccc(/C=C/C(=O)Nc2ccc(-c3nc4ccc([N+](=O)[O-])cc4n3O)cc2)c(OC)c1` [Compound 24, (E)-3-(2,4-Dimethoxy-phenyl)-N-[4-(1-hydroxy-6-nitro-1H-benzoimidazol-2-yl)-phenyl]-acrylamide], in data set [2], the “inhibitory activity” value is listed as “loss of activity”.
As to `O=C(/C=C/c1ccc(-c2c[nH]cn2)cc1)Nc1ccc(-c2nc3ccc([N+](=O)[O-])cc3n2O)cc1` [Compound 28], in data set [2], the “inhibitory activity” value is “loss of activity”.
Take `O=C(/C=C/c1ccc(-n2cnnc2)cc1)Nc1ccc(-c2nc3ccc([N+](=O)[O-])cc3n2O)cc1` [Compound 27]: the “inhibitory activity” value in data set [2] is given as “loss of activity”.
Consider `CC(C)c1ccc(/C=C/C(=O)Nc2ccc(-c3nc4ccc([N+](=O)[O-])cc4n3O)cc2)cc1` [Compound 25, (E)-N-[4-(1-Hydroxy-6-nitro-1H-benzoimidazol-2-yl)-phenyl]-3-(4-isopropyl-phenyl)-acrylamide], for which the “inhibitory activity” value in data set [2] is listed as “loss of activity”.
Consider `N#Cc1ccc(/C=C/C(=O)Nc2ccc(-c3nc4ccc([N+](=O)[O-])cc4n3O)cc2)cc1` [Compound 19], for which the “inhibition” value in data set [1] is recorded as “strongly inhibited cytotoxicity”.
Take `O=C(Cc1ccc(F)cc1)Nc1ccc(-c2nc3ccc([N+](=O)[O-])cc3n2O)cc1` [Compound 12, 2-(4-Fluoro-phenyl)-N-[4-(1-hydroxy-6-nitro-1H-benzoimidazol-2-yl)-phenyl]-acetamide]: the “inhibitory activity” value in data set [2] is reported as “no measurable activity”.
In the case of `CCOc1ccc(-c2nc3ccc(-c4nc5ccc(N6CCN(C)CC6)cc5[nH]4)cc3[nH]2)cc1` [Hoechst 33342, reference compound], in data set [3], the “non-specific DNA binding” value is reported as “faint smear on the gel”.
Take `O=C(CCc1ccc(F)cc1)Nc1ccc(-c2nc3ccc([N+](=O)[O-])cc3n2O)cc1` [Compound 13, 3-(4-Fluoro-phenyl)-N-[4-(1-hydroxy-6-nitro-1H-benzoimidazol-2-yl)-phenyl]-propionamide]: in data set [2], the “inhibitory activity” value is reported as “no measurable activity”.
What is called IC50 is the concentration needed to halve the response being measured. As for `O=C(/C=C/c1ccc(F)cc1)Nc1ccc(-c2nc3ccc([N+](=O)[O-])cc3n2O)cc1` [Compound 14, (E)-3-(4-Fluoro-phenyl)-N-[4-(1-hydroxy-6-nitro-1H-benzoimidazol-2-yl)-phenyl]-acrylamide], the “antibacterial activity (in words)” value in data set [4], in data set [5] and in data set [6] was “no measurable antibacterial activity” each time. Besides, the “non-specific DNA binding” value in data set [3] is “non-DNA binding”. In addition, the “intrinsic toxicity to uninfected macrophages” value (shortened to “intrinsic toxicity”) in data set [7] was “non-cytotoxic”. Besides, the IC50 in data set [2] is no more than 10 µM; in data set [8], greater than 53.8 µM.
Consider `O=C(/C=C/c1ccc(F)cc1)Nc1ccc(-c2nc3ccc([N+](=O)[O-])cc3n2O)nc1` [Compound 31, (E)-3-(4-Fluoro-phenyl)-N-[6-(1-hydroxy-6-nitro-1H-benzoimidazol-2-yl)-pyridin-3-yl]-acrylamide], for which the “inhibition” value in data set [1] is “devoid of any measurable activity”.
For the compound `Cc1cc2nc(-c3ccc(NC(=O)/C=C/c4ccc(F)cc4)cc3)n(O)c2cc1[N+](=O)[O-]` [Compound 36, (E)-3-(4-Fluoro-phenyl)-N-[4-(1-hydroxy-5-methyl-6-nitro-1H-benzoimidazol-2-yl)-phenyl]-acrylamide], the “antibacterial activity (in words)” value in data set [4], in data set [5] and in data set [6] was “no measurable antibacterial activity” each time. Besides, the “non-specific DNA binding” value in data set [3] was “non-DNA binding”. For the same compound, the “intrinsic toxicity” value in data set [7] is reported as “non-cytotoxic”. For the same compound, the IC50 in data set [2] is no more than 10 µM; in data set [8], greater than 52 µM.
On to `COc1ccc(/C=C/C(=O)Nc2ccc(-c3nc4ccc([N+](=O)[O-])cc4n3O)cc2)cc1` [Compound 22, (E)-N-[4-(1-Hydroxy-6-nitro-1H-benzoimidazol-2-yl)-phenyl]-3-(4-methoxy-phenyl)-acrylamide], for which the “antibacterial activity (in words)” value in data set [4], in data set [5] and in data set [6] was “no measurable antibacterial activity” in each case. In data set [3], the “non-specific DNA binding” value is reported as “non-DNA binding”. Besides, the “intrinsic toxicity” value in data set [7] is listed as “non-cytotoxic”. Also, the IC50 is no more than 10 µM in data set [2] and greater than 55.2 µM in data set [8].
